# Experiments:
# [1] = tested on: embolic middle cerebral artery occlusion (MCAO) rats; test: Embolic middle cerebral artery occlusion (MCAO) model in Wistar rat (Examples 2, 7-9); assay type: in vivo; details: for Mean neurological severity score (NSS): 24 hours post-MCAO, scale 0-18; for blood flow compared to saline treated group: measured for 3 hours, p<0.0001 vs saline
# Method: At Day 0, anesthetize the rats to collect blood from the femoral artery to prepare the homologous clot. Create a partial arteriotomy with a microscissors and then insert a sterile PE-50 tubing ([…]) along the artery. Arterial blood collected in this length of the PE-50 tubing commonly generates ˜10 indusial clots that are suitable for MCAO. Keep the clot in the tube for 2 hours at room temperature and subsequently retain for 22 hours at 4° C.
# At Day 1, to prepare the embolus, cut the clot containing PE-50 tubing into 32 mm segment in length and connect the segment with a 3 ml saline filled syringe with 23G needle. Push the syringe to flush the clot out of the PE-50 tubing into saline filled Petri dish. Draw and flush the clot into and out of the PE-10 tubing (draw from clot's end to avoid folding and twisting of the clot), respectively, 10-15 times to wash out the majority of the entrapped red blood cells until the clot without further RBCs releasing. Connect the PE-10 tubing to the modified PE-50 catheter and shift the clot into PE-50 catheter. Then, the modified PE-50 catheter is connected to a 100 μl Hamilton microsyringe. The clot is now ready to be used.
# At Day 1, anesthetize the rats. Bluntly dissect the carotid sheath along the common carotid artery (CCA) until the ECA (ipsilateral external carotid artery), PPA (pterygopalatine artery), and ICA (internal carotid artery) bifurcation is exposed. […] Prepare laser Doppler flow probe into the tube of head. Temporarily clamp the CCA, PPA, and ICA with clip and apply a 4-0 silk suture loosely around the trunk of the ECA near bifurcation. Release the clip slowly and further advance the catheter within the ICA to enter the intracranial segment of the ICA until resistance is felt. The total length of the catheter that has been advanced is −19-22 mm from the ECA arteriotomy site. Retract the catheter 1-2 mm and slowly inject the clot with 5-10 μl of saline at rate of 10 μl/min. The percentage of regional cerebral flow (rCBF) decrease into ˜20-30% after clot injection. Wait for 30 minutes to let the clot stable at the ICA. Retract the catheter until its tip reaches the ECA/ICA bifurcation. Re-apply a clip to temporarily clamp the CCA and the ICA and then withdraw the catheter from the arteriotomy. Tighten the 4-0 silk suture around the ECA trunk to ligate the arteriotomy. Remove the clip. Wait for another 30 minutes to make sure the animal is stable and there is no blooding issue. Close the incision and terminate the anesthesia.
# Neurological deficits were assessed at 24 h after MCAO surgery. The neurological function was graded on a scale of 0-18, with 0 representing normal function and 18 representing maximum neurological deficits (see FIG. 2).
# 24 hours after the induction of MCAO, anesthetize the rat with 5% isoflurane and use normal saline to do the perfusion from heart (150 ml). Decapitate the rat and collect the brain. Rinse the collected dish and matrix with PBS before used. To tear out clot after taking photo. Slice the brain coronally into […] 2-mm slices with a brain matrix on ice (Cut the brain into 8 pieces). Incubate the brain slices in 2% 2,3,5-triphenyltetrazolium chloride (TTC) (Sigma-Aldrich) in 1×PBS for 20 min at room temperature (avoid light) and record the result by photo. Then, using ImageJ to determine the size and extent of the infarction.
# The caudal sides of all the TTC sections were scanned using a digital camera, and the images were stored as JPEG. The non-ischemic and ischemic hemisphere infarct areas were measured using image J (Image J, Bethesda, MD) software. All eight infarct area measurements were calculated with a 2 mm distance between the slices. […]
# [2] = tested on: photochemically induced thrombosis of the middle cerebral artery in rats; test: Photochemically induced thrombotic (PIT) stroke model in rats (Examples 3, 10); assay type: in vivo, rat; details: 24 hours after PIT surgery
# Method: Under anesthesia, the left middle cerebral artery (MCA) was occluded by a thrombus generated at the site of photoirradiation. The left MCA was exposed via a transorbital approach. A vertical incision was made between the left orbital and the external auditory canal. The temporal muscle was reflected and a subtemporal craniotomy was performed without removing the zygomatic arch. A window of approximately 3 mm in diameter was opened at the base of the skull. The main trunk of the left MCA was visible through the window. Endothelial cells in the MCA were focally injured by a photochemical reaction between rose bengal and green illumination (X540 nm, 600,000 Lux). Rose bengal (20 mg/kg) was intravenously dose and then the MCA was exposed to green light for a period of 10 min. During surgery, animals were placed on a heating pad set at 38 C.
# Twenty-four hours (±2 hrs.) after thromboembolism, and once daily for the next five days, neurologic deficits were scored according to a modified method described by Ederson et al. (Stroke, 1986, 17: 472-476). A total of “0” indicates no deficit whereas a maximal score of “15” indicates severe deficits.
# Each brain was cut into six coronal blocks with a rat brain matrix (2 mm interval). Brains were post-fixed overnight in 4% paraformaldehyde at 3.1-6.2° C., stored in phosphate-buffered saline and sent out for histological processing. Each coronal block was embedded in paraffin. One coronal section from each block was taken and stained with hematoxylin and eosin (HE).
# From the HE-stained sections, the infarct areas (mm^2) were manually marked using OsiriX version 8.0.2 (Pixmeo SARL, Bernex, Switzerland). The volume of ischemic infarction (mm^3) was calculated as the […] (six coronal sections per brain). Infarct volumes were calculated in cerebral cortex and basal ganglia. Total infarct volume was calculated by adding the infarct volumes of the basal ganglia and cerebral cortex.
# Rats were treated with vehicle (saline), rtPA (10 mg/kg), DC009 (0.007 mg/kg, 15-minute IV infusion) after 1 hours of stroke onset, or DC009 (0.007 mg/kg, 15-minute IV infusion) after 3 hours of stroke onset. (n=10 per treatment group). At 24 hours after drug administration, rats were assessed with a neurological deficit scale (NDS).
# 24 hours after PIT surgery, rats were euthanized, and brains were processed for […].
# [3] = DC009 0.007 mg/kg, 15-minute IV infusion, 1 hr post-PIT
# [4] = DC009 0.007 mg/kg, 15-minute IV infusion, 3 hr post-PIT
Molecule,"Mean neurological severity score (NSS) ([1]; DC009 0.005 mg/kg, 15-minute IV infusion 3 hours after stroke onset)","infarct size compared to saline and rtPA treated groups ([1]; DC009 0.025 mg/kg at 3 and 6 hours post MCAO surgery, 24 hours after stroke, TTC, FIG. 4)","restoring occluded blood flow ([1]; DC009 0.05 mg/kg, 15-minute IV infusion 1 hour after stroke onset, FIG. 3)","blood flow compared to saline treated group ([1]; DC009 0.05, 0.1, 0.2 and 0.4 mg/kg, 15-minute IV infusion 1 hour after stroke onset, FIG. 3)","infarction volume, Basal ganglia [2, 3]","infarction volume, Cerebral cortex [2, 3] [mm^3]","infarction volume, Basal ganglia [2, 4] [mm^3]","infarction volume, Cerebral cortex [2, 4] [mm^3]","infarction volume, Total [2, 4] [mm^3]","blood flow compared to saline treated group ([1]; rtPA 10 mg/kg (10% IV bolus, rest infused for 30 minutes) 1 hour after stroke onset, FIG. 3)","Mean neurological severity score (NSS) ([1]; rtPA 10 mg/kg (10% IV bolus, rest infused for 30 minutes) 3 hours after stroke onset)","infarct volumes (% hemisphere) ([1]; rtPA 10 mg/kg (10% IV bolus, rest infused for 30 minutes) 3 hours after stroke onset, 24 hours, TTC)","infarction volume, Basal ganglia ([2]; rtPA 10 mg/kg, 1 hr post-PIT) [mm^3]","infarction volume, Cerebral cortex ([2]; rtPA 10 mg/kg, 1 hr post-PIT) [mm^3]","infarction volume, Basal ganglia ([2]; rtPA 10 mg/kg, 3 hr post-PIT) [mm^3]","infarction volume, Cerebral cortex ([2]; rtPA 10 mg/kg, 3 hr post-PIT)","infarction volume, Total ([2]; rtPA 10 mg/kg, 3 hr post-PIT)"
"CC(NC(=O)C1CCCN1)C(=O)NC(CCCCN)C(=O)NCCCCC(NC(=O)C1Cc2cc(O)c(O)cc2C(C)(C)N1)C(=O)O (stereo not drawn) [DC009, 3S-6,7-dihydroxy-1,1-dimethyl-1,2,3,4-tetrahydro-isoquinoline-3-acyl-Lys(Pro-Ala-Lys)]",7.13 ± 0.64,significant smaller infarct size,good efficacy,increased,63.7 ± 10.3 ** mm^3,210.6 ± 26.4,94.8 ± 6.2,227.7 ± 18.4,322.5 ± 23.0,–,–,–,–,–,–,–,–
"rtPA: Alteplase (Activase), a recombinant tissue-type plasminogen activator (rtPA) [reference compound]",–,–,–,–,–,–,–,–,–,increased,6.38 ± 0.74,43.23 ± 11.03,80.7 ± 4.3,200.0 ± 18.1,87.0 ± 7.0,173.5 ± 19.4 ** mm^3,260.6 ± 23.9 ** mm^3
